Test results reported in US6380196B1, “Dihydrobenzofurans” (Byk Gulden Lomberg Chemische Fabrik GmbH, priority 1997, dated 2002).
Where a name gives a salt, the structure may show the parent alone.

System: PDE4
Assay: Inhibition of PDE 4 activity (method of Bauer and Schwabe, adapted to microtitre plates)
Type: biochemical
Experimental: The activity test was carried out according to the method of Bauer and Schwabe, which was adapted to microtitre plates (Naunyn-Schmiederberg's Arch. Pharmacol. 311, 193-198, 1980). In this test, the PDE reaction is carried out in the first step. In a second step, the resultant 5′-nucleotide is cleaved to the uncharged nucleoside by a snake venom 5′-nucleotidase from Crotalus Atrox. In the third step, the nucleoside is separated from the remaining charged substrate on ion exchange columns. The columns are eluted directly into minivials using 2 ml of 30 mM ammonium formate (pH 6.0), to which a further 2 ml of scintillation fluid is added for counting.
The inhibitory values determined for the compounds according to the invention follow from the following table A, in which the numbers of the compounds correspond to the numbers of the examples.

Structure (SMILES) | Inhibition of PDE4 activity [measured as -loglC50 (mol/l)]
COc1ccc(C2=NN(C3CCCCCC3)C(=O)[C@H]3CC=CC[C@@H]23)c2c1OC(C)(C)C2 (relative stereo) [Compound 25, (cis)-4-(2,3-Dihydro-2,2-dimethyl-7-methoxybenzofuran-4-yl)-2-cycloheptyl-4a,5,8,8a-tetrahydro-2H-phthalazin-1-one] | 9.01
COc1ccc(C2=NN(c3ccccc3)C(=O)[C@H]3CC=CC[C@@H]23)c2c1OC(C)(C)C2 (relative stereo) [Compound 27, (cis)-4-(2,3-Dihydro-2,2-dimethyl-7-methoxybenzofuran-4-yl)-2-phenyl-4a,5,8,8a-tetrahydro-2H-phthalazin-1-one] | 8.74
COc1ccc(C2=NNC(=O)C3CC=CCC23)c2c1OC1(CCCC1)C2 (stereo not drawn) [Compound 1, (cis)-4-(2,3-Dihydro-7-methoxybenzofuran-2-spiro-1′-cyclopentan-4-yl)-4a,5,8,8a-tetrahydro-2H-phthalazin-1-one] | 8.02
COc1ccc(C2=NN(C3CCCC3)C(=O)C3CC=CCC23)c2c1OC1(CCCC1)C2 (stereo not drawn) [Compound 5, (cis)-4-(2,3-Dihydro-7-methoxybenzofuran-2-spiro-1′-cyclopentane-4-yl)-2-cyclopentyl-4a,5,8,8a-tetrahydro-2H-phthalazin-1-one] | 9.22
COc1ccc(C2=NN(C3CCCCCC3)C(=O)C3CC=CCC23)c2c1OC1(CCCC1)C2 (stereo not drawn) [Compound 6, (cis)-4-(2,3-Dihydro-7-methoxybenzofuran-2-spiro-1′-cyclopentan-4-yl)-2-cycloheptyl-4a,5,8,8a-tetrahydro-2H-phthalazin-1-one] | 9.17
COc1ccc(C2=NN(Cc3ccccc3)C(=O)C3CC=CCC23)c2c1OC1(CCCC1)C2 (stereo not drawn) [Compound 7, (cis)-4-(2,3-Dihydro-7-methoxybenzofuran-2-spiro-1′-cyclopentan-4-yl)-2-benzyl-4a,5,8,8a-tetrahydro-2H-phthalazin-1-one] | 8.93
COc1ccc(C2=NN(c3ccccc3)C(=O)C3CC=CCC23)c2c1OC1(CCCC1)C2 (stereo not drawn) [Compound 8, (cis)-4-(2.3-Dihydro-7-methoxybenzofuran-2-spiro-1′-cyclopentan-4-yl)-2-phenyl-4a,5,8,8a-tetrahydro-2H-phthalazin-1-one] | 8.87
COc1ccc(C2=NNC(=O)C3CCCCC23)c2c1OC1(CCCC1)C2 [Compound 9, (4aS, 8aR)-4-(2,3-Dihydro-7-methoxybenzofuran-2-spiro-1′-cyclopentan-4-yl)-4a,5,6,7,8,8a-hexahydro-2H-phthalazin-1-one] | 7.80
COc1ccc(C2=NN(Cc3ccc(C(=O)O)cc3)C(=O)C3CCCCC23)c2c1OC1(CCCC1)C2 (stereo not drawn) [Compound 11, (cis)-4-(2,3-Dihydro-7-methoxybenzofuran-2-spiro-1′-cyclopentan-4-yl)-2-(4-carboxybenzyl)-4a,5,6,7,8,8a-hexahydro-2H-phthalazin-1-one] | 7.66
COc1ccc(C2=NN(Cc3ccncc3)C(=O)C3CCCCC23)c2c1OC1(CCCC1)C2 (stereo not drawn) [Compound 12, (cis)-4-(2,3-Dihydro-7-methoxybenzofuran-2-spiro-1′-cyclopentan-4-yl)-2-(4-pyridylmethyl)-4a,5,6,7,8,8a-hexahydro-2H-phthalazin-1-one-hydrochloride] | 8.22
COc1ccc(C2=NN(C3CCCCCC3)C(=O)C3CCCCC23)c2c1OC1(CCCC1)C2 (stereo not drawn) [Compound 13, (cis)-4-(2,3-Dihydro-7-methoxybenzofuran-2-spiro-1′-cyclopentan-4-yl)-2-cycloheptyl-4a,5,6,7,8,8a-hexahydro-2H-phthalazin-1-one] | 9.22
COc1ccc(C2=NN(Cc3ccccc3)C(=O)C3CCCCC23)c2c1OC1(CCCC1)C2 (stereo not drawn) [Compound 14, (cis)-4-(2,3-Dihydro-7-methoxybenzofuran-2-spiro-1′-cyclopentan-4-yl)-2-benzyl-4a,5,6,7,8,8a-hexahydro-2H-phthalazin-1-one] | 8.62
COc1ccc(C2=NN(CCO)C(=O)C3CC=CCC23)c2c1OC1(CCCC1)C2 (stereo not drawn) [Compound 17, (cis)-4-(2,3-Dihydro-7-methoxybenzofuran-2-spiro-1′-cyclopentan-4-yl-2-hydroxyethyl-4a,5,8,8a-tetrahydro-2H-phthalazin-1-one] | 8.36
COc1ccc(C2=NN(CCCCn3ccnc3)C(=O)C3CC=CCC23)c2c1OC1(CCCC1)C2 (stereo not drawn) [Compound 22, (cis)-4(2,3-Dihydro-7-methoxybenzofuran-2-spiro-1′-cylopentan-4-yl)-2-[4-(imidazol-1yl)-1-butyl]-4a,5,8,8a-tetrahydro-phthalazin-1-one] | 8.82
COc1ccc(C2=NN(c3ccc(C(=O)O)cc3)C(=O)C3CC=CCC23)c2c1OC1(CCCC1)C2 (stereo not drawn) [Compound 24, (cis)-4-(2,3-Dihydro-7-methoxybenzofuran-2-spiro-1′-cyclopentan-4-yl)-2-(p-carboxyphenyl)-4a,5,8,8a-tetrahydro-2H-phthalazin-1-one] | 9.38
COc1ccc(C2=NN(Cc3ccccc3)C(=O)C3CC=CCC23)c2c1OC(C)(C)C2 (stereo not drawn) [Compound 26, (cis)-4-2,3-Dihydro-2,2-dimethyl-7-methoxybenzofuran-4-yl)-2-benzyl-4a,5,8,8a-tetrahydro-2H-phthalazin-1-one] | 8.72

System: not given
Assay: not given

Structure (SMILES) | melting point [°C]
COc1ccc(C2=NNC(=O)[C@H]3CC=CC[C@@H]23)c2c1OC(C)(C)C2 (relative stereo) | 242
